Values of other authors, collected in patent publication US20070112055A1, “Crystalline forms of almotriptan and processes for their preparation” (Glenmark Pharmaceuticals Limited, priority 2005, published 2007).

How the values were obtained:
5-HT1D receptors = 5-HT1D receptors (Homo sapiens, UniProt P28221); conditions: general statement of the related art
5-HT1B receptors = 5-HT1B receptors (Homo sapiens, UniProt P28222); conditions: general statement of the related art
5-HT1F receptors = target: T1, 5-HT1F receptors (Homo sapiens, UniProt P30939); conditions: general statement of the related art
T1 sequence (P30939 1-366): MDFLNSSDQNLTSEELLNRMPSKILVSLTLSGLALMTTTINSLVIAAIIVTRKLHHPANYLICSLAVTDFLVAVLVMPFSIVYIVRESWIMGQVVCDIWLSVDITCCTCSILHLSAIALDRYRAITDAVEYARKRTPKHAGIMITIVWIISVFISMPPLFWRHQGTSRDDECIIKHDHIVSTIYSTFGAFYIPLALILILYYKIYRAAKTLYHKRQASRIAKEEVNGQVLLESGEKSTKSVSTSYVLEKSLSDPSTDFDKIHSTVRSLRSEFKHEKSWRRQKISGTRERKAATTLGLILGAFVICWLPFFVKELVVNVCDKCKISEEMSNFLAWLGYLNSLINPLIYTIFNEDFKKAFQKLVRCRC

5-HT1A receptors = target: T2, 5-HT1A receptors (Homo sapiens, UniProt P08908); conditions: general statement of the related art
T2 sequence (P08908 1-422): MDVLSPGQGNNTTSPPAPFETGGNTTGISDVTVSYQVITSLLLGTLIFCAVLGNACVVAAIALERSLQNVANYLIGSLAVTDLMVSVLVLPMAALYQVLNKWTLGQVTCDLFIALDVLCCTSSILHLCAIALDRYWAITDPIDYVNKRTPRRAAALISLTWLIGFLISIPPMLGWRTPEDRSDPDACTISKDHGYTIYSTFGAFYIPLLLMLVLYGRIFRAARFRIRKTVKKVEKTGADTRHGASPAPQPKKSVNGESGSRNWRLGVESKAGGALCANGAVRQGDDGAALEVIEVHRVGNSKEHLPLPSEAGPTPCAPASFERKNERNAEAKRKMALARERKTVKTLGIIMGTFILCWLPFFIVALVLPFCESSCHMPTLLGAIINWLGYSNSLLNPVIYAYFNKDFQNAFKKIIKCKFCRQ

5-HT7 receptors = 5-HT7 receptors (Homo sapiens, UniProt P34969); conditions: general statement of the related art
Sequence of 5-HT7 receptors (P34969 whole entry): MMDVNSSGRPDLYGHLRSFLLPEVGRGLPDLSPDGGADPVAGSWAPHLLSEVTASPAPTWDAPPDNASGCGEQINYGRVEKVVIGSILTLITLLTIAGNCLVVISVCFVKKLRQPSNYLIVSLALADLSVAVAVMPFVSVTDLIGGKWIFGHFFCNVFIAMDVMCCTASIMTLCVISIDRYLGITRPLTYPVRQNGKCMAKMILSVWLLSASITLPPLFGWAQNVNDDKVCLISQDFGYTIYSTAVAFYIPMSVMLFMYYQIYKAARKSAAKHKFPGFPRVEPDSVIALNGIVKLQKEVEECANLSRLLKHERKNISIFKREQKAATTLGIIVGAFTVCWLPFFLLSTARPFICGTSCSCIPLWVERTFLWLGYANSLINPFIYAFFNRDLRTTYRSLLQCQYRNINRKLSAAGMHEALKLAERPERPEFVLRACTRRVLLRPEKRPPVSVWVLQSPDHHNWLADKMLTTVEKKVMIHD

[1] = amorphous form compared with the crystalline forms

Sequence of 5-HT1D receptors (P28221 whole entry): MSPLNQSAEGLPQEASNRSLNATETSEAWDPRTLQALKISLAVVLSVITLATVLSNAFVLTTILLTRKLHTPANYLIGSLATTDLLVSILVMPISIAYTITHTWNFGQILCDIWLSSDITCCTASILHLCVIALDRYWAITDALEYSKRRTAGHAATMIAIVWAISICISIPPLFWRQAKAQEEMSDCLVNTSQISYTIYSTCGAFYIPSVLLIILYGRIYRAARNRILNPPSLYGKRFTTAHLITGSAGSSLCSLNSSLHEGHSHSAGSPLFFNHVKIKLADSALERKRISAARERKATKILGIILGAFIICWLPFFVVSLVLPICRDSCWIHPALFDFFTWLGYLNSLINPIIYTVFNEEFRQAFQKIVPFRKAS
Sequence of 5-HT1B receptors (P28222 whole entry): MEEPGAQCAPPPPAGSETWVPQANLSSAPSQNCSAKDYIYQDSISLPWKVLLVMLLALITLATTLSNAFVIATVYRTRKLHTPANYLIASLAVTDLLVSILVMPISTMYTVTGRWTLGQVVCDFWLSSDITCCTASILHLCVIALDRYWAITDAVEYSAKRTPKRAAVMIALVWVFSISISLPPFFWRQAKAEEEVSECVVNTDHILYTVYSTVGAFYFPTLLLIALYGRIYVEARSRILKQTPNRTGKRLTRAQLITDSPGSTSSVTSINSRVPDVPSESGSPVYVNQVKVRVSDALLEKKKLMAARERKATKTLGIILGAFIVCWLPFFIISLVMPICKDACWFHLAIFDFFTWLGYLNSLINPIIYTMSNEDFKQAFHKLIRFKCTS

| Structure (SMILES) | affinity to 5-HT1D receptors (5-HT1D receptors) | affinity to 5-HT1B receptors (5-HT1B receptors) | affinity to 5-HT1F receptors (5-HT1F receptors) | affinity for 5-HT1A receptors (5-HT1A receptors) | affinity for 5-HT7 receptors (5-HT7 receptors) | bioavailability [1] |
| --- | --- | --- | --- | --- | --- | --- |
| CN(C)CCc1c[nH]c2ccc(CS(=O)(=O)N3CCCC3)cc12 [Almotriptan, 1-[[[3-[2-(dimethylamino)ethyl]indol-5-yl]methyl]sulfonyl]pyrrolidine] | high affinity | high affinity | high affinity | weak affinity | weak affinity | – |
| CO/N=C(\C(=O)N[C@@H]1C(=O)N2C(C(=O)OC(C)OC(C)=O)=C(COC(N)=O)CS[C@H]12)c1ccco1 (stereo partly drawn) [cefuroxime axietil] | – | – | – | – | – | much higher bioavailability than the crystalline forms |
